Results as given in patent publication US7074789B2, “Kinase inhibitors” (Amgen Inc., priority 1999, dated 2006).

Key:
Type in all cases: biochemical
[1] = target: T1, Kdr (Homo sapiens, UniProt P35968); assay: Kinase inhibition assay (33P transfer), Kdr; conditions: Table 3; read-out: KDR-1
T1 construct: Kinases are expressed as either kinase domains or full length constructs; made in house
How it was run: (§1)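 GST/His-tagged kinase (domain or full length; E. coli or baculovirus) + [33P]ATP on plates coated with poly(Glu,Tyr) 4:1 or poly(Arg,Ser) 3:1; incubate, wash 0.5% H3PO4, add scintillant, count.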

[2] = target: T2, Flt-1 (Homo sapiens, UniProt P17948); assay: Kinase inhibition assay (33P transfer), Flt-1
T2 construct: Kinases are expressed as either kinase domains or full length constructs; made in house
How it was run: (§2)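 Read-out: scintillation counts of 33P moved from ATP onto synthetic peptide polymer coated on the well surface, after washing with 0.5% phosphoric acid. Enzymes were tagged (GST or polyHistidine) and came from bacterial or insect-cell expression. IC50 marks 50% loss of incorporated label.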

[3] = target: T3, Zap-70 (Homo sapiens, UniProt P43403); assay: Kinase inhibition assay (33P transfer), Zap-70; conditions: Table 3; read-out: Zap-1
T3 construct: Kinases are expressed as either kinase domains or full length constructs; made in house
T3 sequence (P43403 1-619): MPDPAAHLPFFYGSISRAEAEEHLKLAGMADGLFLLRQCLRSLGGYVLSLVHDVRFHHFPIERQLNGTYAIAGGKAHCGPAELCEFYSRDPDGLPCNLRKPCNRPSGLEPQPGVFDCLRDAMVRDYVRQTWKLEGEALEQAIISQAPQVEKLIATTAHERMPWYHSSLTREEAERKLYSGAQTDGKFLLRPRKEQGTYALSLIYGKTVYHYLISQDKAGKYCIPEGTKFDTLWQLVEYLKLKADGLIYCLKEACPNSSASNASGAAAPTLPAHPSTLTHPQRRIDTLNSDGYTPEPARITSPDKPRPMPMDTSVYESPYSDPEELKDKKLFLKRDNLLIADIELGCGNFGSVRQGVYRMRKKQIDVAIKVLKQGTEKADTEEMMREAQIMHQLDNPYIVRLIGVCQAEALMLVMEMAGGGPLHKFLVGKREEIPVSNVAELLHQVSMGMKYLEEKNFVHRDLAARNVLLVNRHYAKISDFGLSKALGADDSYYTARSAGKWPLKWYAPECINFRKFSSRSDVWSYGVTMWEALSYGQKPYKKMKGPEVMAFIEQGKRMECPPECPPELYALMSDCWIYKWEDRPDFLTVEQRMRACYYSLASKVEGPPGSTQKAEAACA
How it was run: as §1

[4] = target: T4, EPHB4 (Homo sapiens, UniProt P54760); assay: Kinase inhibition assay (33P transfer), EPHB4; conditions: read-out: EPHB4-1
T4 construct: Kinases are expressed as either kinase domains or full length constructs; made in house
T4 sequence (P54760 16-987): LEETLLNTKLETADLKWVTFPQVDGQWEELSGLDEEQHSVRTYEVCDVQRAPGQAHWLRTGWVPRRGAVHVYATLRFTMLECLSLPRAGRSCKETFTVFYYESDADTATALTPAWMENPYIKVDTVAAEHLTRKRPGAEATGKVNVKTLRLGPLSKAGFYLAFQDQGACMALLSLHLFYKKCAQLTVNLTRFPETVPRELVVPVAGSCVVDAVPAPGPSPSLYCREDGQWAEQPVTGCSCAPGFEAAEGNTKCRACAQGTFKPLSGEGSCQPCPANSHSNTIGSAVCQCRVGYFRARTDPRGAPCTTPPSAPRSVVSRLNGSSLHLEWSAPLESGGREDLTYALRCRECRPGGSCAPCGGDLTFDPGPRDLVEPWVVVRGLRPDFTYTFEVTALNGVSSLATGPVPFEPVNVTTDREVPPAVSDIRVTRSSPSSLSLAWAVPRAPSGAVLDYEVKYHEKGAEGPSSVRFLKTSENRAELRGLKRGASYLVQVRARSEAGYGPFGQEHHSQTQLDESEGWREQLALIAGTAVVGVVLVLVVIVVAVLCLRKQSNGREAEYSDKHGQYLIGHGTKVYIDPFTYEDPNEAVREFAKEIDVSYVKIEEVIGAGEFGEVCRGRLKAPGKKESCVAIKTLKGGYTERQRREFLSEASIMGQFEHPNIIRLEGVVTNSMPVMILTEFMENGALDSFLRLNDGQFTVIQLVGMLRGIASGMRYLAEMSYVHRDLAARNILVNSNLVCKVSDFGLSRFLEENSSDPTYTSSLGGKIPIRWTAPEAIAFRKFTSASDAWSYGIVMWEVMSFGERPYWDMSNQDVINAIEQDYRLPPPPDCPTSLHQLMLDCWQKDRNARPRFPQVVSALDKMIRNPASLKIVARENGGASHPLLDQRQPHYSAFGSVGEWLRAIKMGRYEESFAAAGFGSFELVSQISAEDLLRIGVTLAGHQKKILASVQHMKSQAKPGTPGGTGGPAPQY

[5] = target: T5, Hck-1 (Homo sapiens, UniProt P08631); assay: Kinase inhibition assay (33P transfer), Hck; conditions: Table 6, Hck-1 kinase inhibition class
T5 construct: Kinases are expressed as either kinase domains or full length constructs; made in house

[6] = target: T6, Src (Homo sapiens, UniProt P12931); assay: Kinase inhibition assay (33P transfer), Src; conditions: Table 6, Src-1 kinase inhibition class
T6 construct: Kinases are expressed as either kinase domains or full length constructs; made in house
How it was run: as §2

[7] = target: T7, ErbB4 (Homo sapiens, UniProt Q15303); assay: Kinase inhibition assay (33P transfer), ErbB4; conditions: read-out: ErbB4-1
T7 construct: Kinases are expressed as either kinase domains or full length constructs; made in house

[8] = target: T8, Lyn (Homo sapiens, UniProt P07948); assay: Kinase inhibition assay (33P transfer), Lyn; conditions: Table 6, Lyn-1 kinase inhibition class
T8 construct: Kinases are expressed as either kinase domains or full length constructs; made in house
How it was run: as §2

T8 sequence (P07948 whole entry, species assumed, the tested form may be a part): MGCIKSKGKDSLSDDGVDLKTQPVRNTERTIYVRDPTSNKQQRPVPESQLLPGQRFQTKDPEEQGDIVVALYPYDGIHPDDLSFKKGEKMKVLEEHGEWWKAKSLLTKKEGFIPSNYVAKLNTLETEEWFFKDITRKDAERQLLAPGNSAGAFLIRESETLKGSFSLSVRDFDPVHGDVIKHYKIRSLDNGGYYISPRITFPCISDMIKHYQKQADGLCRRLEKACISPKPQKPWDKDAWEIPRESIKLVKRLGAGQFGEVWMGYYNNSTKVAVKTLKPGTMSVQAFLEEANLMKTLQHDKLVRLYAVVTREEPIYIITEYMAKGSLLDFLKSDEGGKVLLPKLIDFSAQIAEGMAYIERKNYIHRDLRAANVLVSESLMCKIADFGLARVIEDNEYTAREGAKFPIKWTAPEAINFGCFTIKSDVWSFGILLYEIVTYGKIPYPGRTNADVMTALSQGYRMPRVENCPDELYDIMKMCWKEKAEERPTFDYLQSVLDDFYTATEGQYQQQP
T2 sequence (P17948 27-1338, species assumed): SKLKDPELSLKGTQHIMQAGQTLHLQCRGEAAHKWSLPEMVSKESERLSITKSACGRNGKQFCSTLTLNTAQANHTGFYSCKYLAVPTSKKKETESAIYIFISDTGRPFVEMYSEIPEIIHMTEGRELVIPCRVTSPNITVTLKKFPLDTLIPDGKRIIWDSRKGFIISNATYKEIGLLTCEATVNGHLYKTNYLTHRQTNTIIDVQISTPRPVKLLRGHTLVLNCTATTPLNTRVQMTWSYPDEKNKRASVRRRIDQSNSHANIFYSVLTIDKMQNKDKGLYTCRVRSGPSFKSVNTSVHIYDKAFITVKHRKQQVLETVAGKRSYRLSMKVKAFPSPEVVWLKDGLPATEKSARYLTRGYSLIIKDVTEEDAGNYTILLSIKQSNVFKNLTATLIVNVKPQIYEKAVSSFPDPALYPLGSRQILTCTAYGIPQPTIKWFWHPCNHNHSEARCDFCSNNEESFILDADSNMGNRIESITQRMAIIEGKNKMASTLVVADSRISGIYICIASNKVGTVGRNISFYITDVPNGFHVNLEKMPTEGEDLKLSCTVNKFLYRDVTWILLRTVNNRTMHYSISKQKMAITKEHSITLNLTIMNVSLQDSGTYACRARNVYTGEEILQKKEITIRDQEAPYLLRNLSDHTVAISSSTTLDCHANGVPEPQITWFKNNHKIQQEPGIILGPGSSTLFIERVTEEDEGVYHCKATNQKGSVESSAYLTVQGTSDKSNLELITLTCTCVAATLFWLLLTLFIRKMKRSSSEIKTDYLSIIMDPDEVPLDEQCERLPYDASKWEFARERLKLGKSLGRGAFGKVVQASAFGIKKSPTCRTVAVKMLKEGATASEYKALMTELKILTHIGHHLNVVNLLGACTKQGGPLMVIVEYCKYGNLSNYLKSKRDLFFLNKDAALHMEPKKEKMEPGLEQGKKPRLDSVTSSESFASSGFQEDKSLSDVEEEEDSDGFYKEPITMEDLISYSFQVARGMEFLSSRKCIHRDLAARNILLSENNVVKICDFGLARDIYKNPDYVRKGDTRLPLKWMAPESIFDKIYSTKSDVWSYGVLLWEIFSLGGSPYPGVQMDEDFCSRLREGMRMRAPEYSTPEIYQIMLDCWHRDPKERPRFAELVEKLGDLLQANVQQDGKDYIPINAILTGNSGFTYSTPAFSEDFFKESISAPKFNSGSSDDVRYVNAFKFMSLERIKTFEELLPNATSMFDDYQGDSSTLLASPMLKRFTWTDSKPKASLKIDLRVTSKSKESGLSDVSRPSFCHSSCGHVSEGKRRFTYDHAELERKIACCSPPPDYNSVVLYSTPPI
T6 sequence (P12931 whole entry, species assumed, the tested form may be a part): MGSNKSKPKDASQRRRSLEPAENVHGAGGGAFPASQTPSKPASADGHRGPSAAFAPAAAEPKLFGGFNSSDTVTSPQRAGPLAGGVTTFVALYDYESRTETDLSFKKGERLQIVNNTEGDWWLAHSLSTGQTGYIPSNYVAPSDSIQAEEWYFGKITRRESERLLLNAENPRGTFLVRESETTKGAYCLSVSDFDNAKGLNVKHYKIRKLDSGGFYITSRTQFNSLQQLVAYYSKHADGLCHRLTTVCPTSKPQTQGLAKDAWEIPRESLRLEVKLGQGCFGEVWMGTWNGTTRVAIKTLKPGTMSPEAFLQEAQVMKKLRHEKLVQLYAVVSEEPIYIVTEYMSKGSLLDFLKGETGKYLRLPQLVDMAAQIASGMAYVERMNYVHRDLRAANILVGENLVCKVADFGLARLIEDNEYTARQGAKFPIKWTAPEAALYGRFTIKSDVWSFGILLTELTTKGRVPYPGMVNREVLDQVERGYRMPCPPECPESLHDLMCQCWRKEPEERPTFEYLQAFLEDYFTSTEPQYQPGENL
T5 sequence (P08631 whole entry, the tested form may be a part): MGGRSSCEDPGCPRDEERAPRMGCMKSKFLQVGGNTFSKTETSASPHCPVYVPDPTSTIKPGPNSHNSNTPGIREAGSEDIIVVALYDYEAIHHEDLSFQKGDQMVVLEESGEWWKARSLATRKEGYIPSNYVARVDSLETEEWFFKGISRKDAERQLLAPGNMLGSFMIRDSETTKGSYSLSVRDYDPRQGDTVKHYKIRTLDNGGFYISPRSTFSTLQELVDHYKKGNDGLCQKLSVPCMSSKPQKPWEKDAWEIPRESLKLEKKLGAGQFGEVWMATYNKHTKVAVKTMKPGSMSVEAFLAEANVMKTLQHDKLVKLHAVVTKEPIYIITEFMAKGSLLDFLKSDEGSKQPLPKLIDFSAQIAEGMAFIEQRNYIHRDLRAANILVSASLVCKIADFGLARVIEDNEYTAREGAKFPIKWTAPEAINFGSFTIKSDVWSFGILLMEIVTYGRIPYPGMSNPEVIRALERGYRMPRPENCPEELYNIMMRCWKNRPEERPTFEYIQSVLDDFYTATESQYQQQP
T1 sequence (P35968 20-1356, species assumed): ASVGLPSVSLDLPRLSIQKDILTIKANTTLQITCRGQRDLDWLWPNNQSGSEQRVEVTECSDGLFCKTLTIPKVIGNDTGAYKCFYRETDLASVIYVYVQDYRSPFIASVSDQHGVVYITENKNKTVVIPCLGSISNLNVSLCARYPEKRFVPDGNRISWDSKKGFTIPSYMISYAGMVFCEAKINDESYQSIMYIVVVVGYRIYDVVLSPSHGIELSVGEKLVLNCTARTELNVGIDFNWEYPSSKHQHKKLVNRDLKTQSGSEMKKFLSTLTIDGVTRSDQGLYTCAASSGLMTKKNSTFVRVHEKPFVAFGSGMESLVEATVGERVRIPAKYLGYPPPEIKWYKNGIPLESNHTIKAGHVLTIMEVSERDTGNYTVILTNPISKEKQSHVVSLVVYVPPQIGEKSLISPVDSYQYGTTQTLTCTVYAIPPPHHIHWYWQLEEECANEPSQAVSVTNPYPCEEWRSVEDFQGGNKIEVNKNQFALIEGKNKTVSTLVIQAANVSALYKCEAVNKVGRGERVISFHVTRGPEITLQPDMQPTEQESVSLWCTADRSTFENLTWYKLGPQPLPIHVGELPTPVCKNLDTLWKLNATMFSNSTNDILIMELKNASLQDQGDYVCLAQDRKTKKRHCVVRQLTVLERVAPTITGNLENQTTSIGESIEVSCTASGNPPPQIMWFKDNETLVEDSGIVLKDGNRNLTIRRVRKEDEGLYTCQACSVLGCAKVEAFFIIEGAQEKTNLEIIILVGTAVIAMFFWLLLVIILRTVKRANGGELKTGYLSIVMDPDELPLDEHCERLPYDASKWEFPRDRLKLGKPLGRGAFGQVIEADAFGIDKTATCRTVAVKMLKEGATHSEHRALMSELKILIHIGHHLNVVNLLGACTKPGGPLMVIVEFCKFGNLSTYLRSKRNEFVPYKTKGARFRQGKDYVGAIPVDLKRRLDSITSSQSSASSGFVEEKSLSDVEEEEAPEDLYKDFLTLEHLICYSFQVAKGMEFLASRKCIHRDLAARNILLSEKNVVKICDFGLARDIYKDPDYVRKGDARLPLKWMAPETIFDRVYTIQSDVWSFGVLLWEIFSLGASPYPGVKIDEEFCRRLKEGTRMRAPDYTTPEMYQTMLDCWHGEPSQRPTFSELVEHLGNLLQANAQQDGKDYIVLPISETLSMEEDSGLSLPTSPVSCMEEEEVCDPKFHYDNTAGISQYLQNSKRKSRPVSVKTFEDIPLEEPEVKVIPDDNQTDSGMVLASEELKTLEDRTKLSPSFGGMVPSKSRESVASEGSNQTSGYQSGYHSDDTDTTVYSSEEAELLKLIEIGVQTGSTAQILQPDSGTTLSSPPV

Compound | IC50 [1] [µM] | IC50 [2] [µM] | IC50 [3] [µM] | IC50 [4] [µM] | IC50 [5] [µM] | IC50 [6] [µM] | IC50 [7] [µM] | IC50 [8] [µM]
NC(=O)c1cccc(Nc2ncnc(-n3c(N)nc4ccccc43)n2)c1 [Compound 395] | < 1.15 | < 1.15 | > 13 | > 13 | > 13 | 10.1 to 13 | > 13 | 10.1 to 13
COc1cc(Nc2ncnc(Nc3cccc(C)c3)n2)cc(OC)c1OC [Compound 64] | 1.09 to 6.53 | > 12.2 | 9.53 to 12.2 | 1.09 to 6.53 | > 12.2 | < 1.09 | > 12.2 | < 1.09
COc1cc(Nc2ncnc(-n3c(Nc4ccc(C)cc4)nc4ccccc43)n2)cc(OC)c1OC [Compound 385] | < 0.827 | < 0.827 | > 9.31 | > 9.31 | > 9.31 | > 9.31 | > 9.31 | 0.827 to 4.96
COc1cc(Nc2ncnc(Nc3ccc4ccccc4c3)n2)cc(OC)c1OC [Compound 96] | 0.991 to 5.95 | 8.68 to 11.2 | 8.68 to 11.2 | > 11.2 | 8.68 to 11.2 | 5.95 to 8.68 | 0.991 to 5.95 | 0.991 to 5.95
COc1cc(Nc2ncnc(Nc3cccc(O)c3)n2)cc(OC)c1OC [Compound 78] | < 1.08 | < 1.08 | > 12.2 | < 1.08 | 1.08 to 6.5 | < 1.08 | 1.08 to 6.5 | < 1.08
COc1cc(Nc2ncnc(Nc3ccccc3F)n2)cc(OC)c1OC [Compound 65] | 1.08 to 6.46 | 1.08 to 6.46 | > 12.1 | 6.46 to 9.42 | > 12.1 | 1.08 to 6.46 | > 12.1 | 1.08 to 6.46
COc1cc(Nc2ncnc(Nc3cc(-c4ccco4)n[nH]3)n2)cc(OC)c1 [Compound 365] | < 1.05 | 1.05 to 6.33 | 1.05 to 6.33 | 1.05 to 6.33 | > 11.9 | 1.05 to 6.33 | 6.33 to 9.23 | < 1.05
COc1cc(Nc2ncnc(Nc3ccc(F)c(Cl)c3)n2)cc(OC)c1OC [Compound 61] | < 0.986 | < 0.986 | > 11.1 | < 0.986 | > 11.1 | < 0.986 | > 11.1 | < 0.986
COc1cc(Nc2ncnc(Nc3ccc(Cl)cc3)n2)cc(OC)c1OC [Compound 72] | < 1.03 | < 1.03 | > 11.6 | 1.03 to 6.19 |  |  | 1.03 to 6.19 | 
COc1cc(Nc2ncnc(-n3c(Nc4cccc(C(=O)O)c4)nc4ccccc43)n2)cc(OC)c1OC [Compound 390] | 0.779 to 4.67 | 0.779 to 4.67 | > 8.76 | > 8.76 | > 8.76 | 4.67 to 6.82 | 6.82 to 8.76 | 0.779 to 4.67
COc1cc(Nc2ncnc(Nc3ccc(OCc4ccccc4)cc3)n2)cc(OC)c1OC [Compound 926] | < 0.871 | 0.871 to 5.22 | 5.22 to 7.62 | > 9.79 | > 9.79 | 0.871 to 5.22 | > 9.79 | 0.871 to 5.22
COc1cccc(Nc2ncnc(Nc3cc(OC)c(OC)c(OC)c3)n2)c1 [Compound 87] | 1.04 to 6.26 | 9.13 to 11.7 | 9.13 to 11.7 | > 11.7 | > 11.7 | 1.04 to 6.26 | 9.13 to 11.7 | 1.04 to 6.26
COc1cc(Nc2ncnc(-n3c(Nc4cccc(C)c4)nc4ccccc43)n2)cc(OC)c1OC [Compound 386] | < 0.827 | < 0.827 | > 9.31 | > 9.31 | > 9.31 | > 9.31 | > 9.31 | > 9.31
COc1cc(Nc2ncnc(-n3c(Nc4ccc5[nH]ccc5c4)nc4ccccc43)n2)cc(OC)c1OC [Compound 376] | < 0.787 | < 0.787 | > 8.85 | 6.88 to 8.85 | > 8.85 | > 8.85 | 6.88 to 8.85 | < 0.787
COc1cc(Nc2ncnc(-n3cc(CC(N)=O)c4ccccc43)n2)cc(OC)c1OC [Compound 353] | < 0.921 | < 0.921 | > 10.4 | > 10.4 | > 10.4 | > 10.4 | > 10.4 | > 10.4
COc1cc(Nc2ncnc(-c3ccnc(NCCCO)c3)n2)cc(OC)c1OC [Compound 180] | 0.97 to 5.82 | > 10.9 | > 10.9 | > 10.9 | > 10.9 | > 10.9 | > 10.9 | 0.97 to 5.82
COc1cc(Nc2ncnc(Nc3cc(Cl)c(O)c(Cl)c3)n2)cc(OC)c1OC [Compound 68] | < 0.913 | < 0.913 | > 10.3 | 0.913 to 5.48 | > 10.3 | < 0.913 | > 10.3 | < 0.913
COc1cc(Nc2ncnc(Nc3cccc(Br)c3)n2)cc(OC)c1OC [Compound 75] | 0.925 to 5.55 | > 10.4 | 8.1 to 10.4 | < 0.925 | > 10.4 | 0.925 to 5.55 | > 10.4 | < 0.925
COc1cc(Nc2ncnc(Nc3cc(OC)c(OC)c(OC)c3)n2)cc(OC)c1 [Compound 86] | < 0.968 | > 10.9 | > 10.9 | > 10.9 | > 10.9 | 0.968 to 5.81 | 0.968 to 5.81 | > 10.9
COC(=O)c1cccc(Nc2ncnc(Nc3cc(-c4ccco4)n[nH]3)n2)c1 [Compound 344] | < 1.06 | 6.36 to 9.27 | > 11.9 | 1.06 to 6.36 | > 11.9 | > 11.9 | > 11.9 | > 11.9
COc1cc(Nc2ncnc(-n3c(N)nc4ccccc43)n2)cc(OC)c1OC [Compound 289] | < 1.02 | < 1.02 | > 11.4 | 1.02 to 6.1 | > 11.4 | 1.02 to 6.1 | > 11.4 | 6.1 to 8.9
C#Cc1cccc(Nc2ncnc(Nc3cc(OC)c(OC)c(OC)c3)n2)c1 [Compound 74] | 1.06 to 6.36 |  | > 11.9 | < 1.06 | > 11.9 | 1.06 to 6.36 | > 11.9 | < 1.06
COc1cc(Nc2ncnc(Nc3ccc(N)cc3)n2)cc(OC)c1OC [Compound 92] | 1.09 to 6.51 | 6.51 to 9.5 | 9.5 to 12.2 | 6.51 to 9.5 | > 12.2 | 9.5 to 12.2 |  | 1.09 to 6.51
